# How the values were obtained:
# [1] = tested on: rats subject to spinal cord injury; test: Behavioral testing (BBB scale) after spinal cord injury; assay type: in vivo; conditions: rat SCI, 0.35 mg/ml and 3.5 mg/ml for 7 days via intrathecal miniosmotic pump; saline controls no improvement
# Experimental: As examples of the general utility of chemical compounds for general CNS damage and repair, chlorpromazine was assessed in rodent models of spinal cord injury and stroke (MCAO). […] Briefly, rats were subject to spinal cord injury as described and administered chlropromzaine at 0.35 mg/ml and 3.5 mg/ml for 7 days via the intrathecal miniosmotic pump. At 7 days, 4 rats were assessed for behavioral recovery, prior to being sacrificed for gene expression analyses as described above.
# In these studies rats (n=16 per group) will receive the SOX9 inhibitor for 6 weeks at which time half of the animals will be processed for SOX9 target gene expression by Q-PCR (as described above) and half will be processed for immunohistochemistry. […] Locomotor recovery, chronic pain syndromes and autonomic function will be assessed in treated and control mice. Motor function will be evaluated once per week using the Basso, Beattie and Bresnahan (BBB) scale for scoring hind limb function (Basso 1995). The presence of mechanical allodynia (a pain syndrome in which innocuous stimuli are perceived as painful) will be assessed once a week by stimulating the backs of the mice with a modified 1.569 mN Semmes Weinstein monofilament at, and rostral, to the level of the injury. […] Finally autonomic function will be assessed by measuring the degree of autonomic dysreflexia in animals before being sacrificed. […]
# SOX9 target genes = test: Q-PCR of SOX9 target gene expression in aged primary astrocyte cultures; assay type: cell-based, rat
# Source text: Another approach to modulating the capacity of calmodulin to transport SOX9 into the nucleus is via competitive inhibition of calmodulin binding. To that effect, a novel peptide (SOX-CAL) was generated to specifically block the calmodulin SOX9 binding site. The SOX-CAL peptide sequence, […] (SEQ ID NO.8), corresponds with the calmodulin binding sequence in SOX9. To ensure the peptide's entry into the cell, it was synthesized fused to the protein transduction domain of the HIV-1 Tat protein. […] This analysis was performed in contrast to the control FLAG-TAT peptide.
# Antagonists to TRPV4 cation channel were tested to determine their ability to decrease the activity of SOX9 in astrocytes. The effect of TRPV4 antagonists on SOX9 function was evaluated in cultured rat astrocytes transfected with pGL4.1 4×48 Col2a1. The day after transfection, cells were treated for 24 h with 2-APB (100 μM) or ruthenium red (10 μM) before the luciferase assay was performed. The broad-spectrum transient receptor potential (TRP) channel antagonist 2-APB inhibited SOX9 activity by ˜70%, while the vanniloid subfamily-specific TRP antagonist ruthenium red inhibited SOX9 activity by ˜25%. With respect to SOX9 target genes, Q-PCR analysis of aged primary astrocyte cultures was performed to determine the impact of the TRPV4 antagonists on SOX9. Treatment with ruthenium red specifically reduces aggrecan and Col4a expression by 40% and 50%, respectively (FIG. 6B), while 2-APB reduces XT-1, HAPLN1, aggrecan, Col2a, and Col4a by 50%, 70%, 80%, 50%, and 60% respectively (FIG. 6B, C), in rat primary astrocytes after a 48 hour exposure (n=3). […] Based on the role that the TRP channels serve in modulating calcium levels, and therefore calmodulin activity, the effect of the TRP channel blockers on SOX9 activity appears to be indirect.
smiles,measurement,setting,value
CN(C)CCCN1c2ccccc2Sc2ccc(Cl)cc21 [chlorpromazine],locomoter function score (BBB scale),[1],non-zero scores
same,expression of C4ST,"SOX9 target genes; 20 uM, 48 hours, vs vehicle",significantly reduced
same,expression of XT1,"SOX9 target genes; 20 uM, 48 hours, vs vehicle",significantly reduced
same,expression of XT2,"SOX9 target genes; 20 uM, 48 hours, vs vehicle",significantly reduced
same,SOX9 target genes expression,SOX9 target genes; longer treatments (1 week),even more profound reductions

# From patent publication US20130266663A1, “SOX9 INHIBITORS” (priority 2010, published 2013)
